# Data reported in US7297817B2, “Thio-substituted arylmethanesulfinyl derivatives” (Cephalon France, priority 2004, dated 2007).
# Columns and labels:
# Wistar rats = assay: Evaluation of Wake Promoting Activity in Rats (EEG/EMG sleep/wake scoring); assay type: in vivo, rat; details: i.p. route, 100 mg/kg; for Mean AUC0–3h, test compound: first 3 hrs following dosing, n = 8 rats; for wakefulness compared to vehicle-treated animals: p<0.05 vs control groups
# Method: The methodology utilized for evaluating wake promoting activity of test compounds is based on that described by Edgar and Seidel, Journal of Pharmacology and Experimental Therapeutics, 283:757-769, 1997, and incorporated herein in its entirety by reference.
# Animal Surgery. Adult, male Wistar rats (275-320 g from Charles River Laboratories, Wilmington, Mass.) were anesthetized (Nembutal, 45 mg/kg, ip.) and surgically prepared with implants for recording of chronic EEG (encephalographic) and EMG (electromyographic) recording. The EEG implants were made from commercially available components (Plastics One, Roanoke, Va.). EEG signals were recorded from stainless steel screw electrodes: 2 frontal (+3.0 mm AP from bregma, ±2.0 mm ML), and 2 occipital (−4.0 mm AP from bregma, ±2.0 mm ML). Two Teflon-coated stainless steel wires were positioned under the nuchal trapezoid muscles for EMG recording. All electrode leads were inserted into a connector pedestal and the pedestal affixed to the skull by application dental acrylic. Antibiotic was administered post surgically and antibiotic cream was applied to the wound edges to prevent infection. At least one week elapsed between surgery and recording.
# Recording environment. Postsurgically, rats were housed in pairs in an isolated room. Food and water were available ad libitum, ambient temperature was 21° C., and humidity was 55%. At least 24 hrs prior to recording, they were placed in Nalgene containers (31×31×31 cm) with a wire-grid top, and entry to the room was prohibited during the day of recording except for dosing. The containers were placed on a rack with two shelves, 4 containers per shelf. Fluorescent overhead room lights were set to a 24 hr. light/dark cycle (on at 7 AM, off at 7 PM). Light levels inside the containers were 38 and 25 lux for the top and bottom shelves respectively. Background white-noise (68 db inside the containers) was present in the room to mask ambient sounds.
# Data acquisition. EEG and EMG signals were led via cables to a commutator (Plastics One) and then to pre-amplifiers (model 1700, A-M Systems, Carlsborg, Wash.). EEG and EMG signals were amplified (10K and 1K respectively) and bandpass filtered between 0.3 and 500 Hz for EEG and between 10 and 500 Hz for EMG. […] On the day of dosing, data was recorded for 6 to 10 hours beginning at 11 AM.
# Drug administration and study design. Compounds were evaluated on groups of from 4 to 8 rats carried out over one or two separate test sessions. […]
# Sleep/wake scoring. Sleep and wake activity were determined manually using ICELUS software. […]
smiles,measurement,setting,value
NC(=O)C[S+]([O-])Cc1ccccc1COc1ccccc1 (centres unmarked),melting point,,153 to 154 °C
"CC(=O)N1CCN(C(=O)C[S+]([O-])Cc2ccc(Oc3ccc(Cl)c(Cl)c3)cc2)CC1 (centres unmarked) [Example 22, 1-(4-Acetyl-piperazin-1-yl)-2-[4-(3,4-dichloro-phenoxy)-phenylmethanesulfinyl]-ethanone]","Mean AUC0–3h, test compound",Wistar rats,162.7 % of waiking time × hr
same,wakefulness compared to vehicle-treated animals,Wistar rats,significantly greated wakefulness
"NC(=O)C[S+]([O-])Cc1ccccc1NC(=O)c1ccc(Cl)cc1 (centres unmarked) [Example 113, N-(2-carbamoylmethanesulfinylmethyl-phenyl)-4-chloro-benzamide]","Mean AUC0–3h, test compound",Wistar rats,99.0 % of waiking time × hr
same,wakefulness compared to vehicle-treated animals,Wistar rats,significantly greated wakefulness
